# Test results: patent US20250215039A1, “NUCLEOSIDES FOR TREATING CANCER” (PRIMEFOUR THERAPEUTICS, INC., priority 2022, published 2025)
# Where two headings read alike, the source gives them in different places.
# System: cancer cell lines
# Assay: Cancer cell proliferation activity (CellTiterGlo, 72 h)
# Format: cell-based
# Conditions: 72 h, 72 h, read-out: IC50
# Outline: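 Cells seeded overnight at 37 °C, then dosed with compound at 0.1% final DMSO and incubated 72 h at 37 °C (5% or 10% CO2 by medium).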
smiles,measurement,setting,value
"CCC[C@]1(CO)O[C@@H](n2cnc3c(N)nc(F)nc32)C[C@@H]1O [Cpd. No. 129, (2R,3S,5R)-5-(6-amino-2-fluoro-9H-purin-9-yl)-2-(hydroxymethyl)-2-propyltetrahydrofuran-3-ol]",IC50,5637 cell line (bladder),560 nM
same,IC50,AS49 cell line (lung),3010 nM
same,IC50,CLS439 cell line (bladder),3260 nM
same,IC50,HS729 cell line (muscle),870 nM
same,IC50,JAR cell line (placenta),320 nM
same,IC50,"Homo sapiens, 22Rv1, 72 h, 22RV1 cell line (prostate)",1080 nM
same,IC50,"Homo sapiens, 786-0, 72 h, 786O cell line (kidney)",300 nM
same,IC50,"Homo sapiens, A204, 72 h, A204 cell line (muscle)",220 nM
same,IC50,"Homo sapiens, A673, 72 h, A673 cell line (bone)",1440 nM
same,IC50,"Homo sapiens, A2780, 72 h, A2780 cell line (ovary)",740 nM
same,IC50,"Homo sapiens, A-375, 72 h, A375 cell line (skin)",200 nM
same,IC50,"Homo sapiens, A-431, 72 h, A431 cell line (skin)",330 nM
same,IC50,"Homo sapiens, ACHN, ACHN cell line (kidney)",2540 nM
same,IC50,"Homo sapiens, ASPC1, 72 h, ASPC1 cell line (pancreas)",220 nM
same,IC50,"Homo sapiens, BT-20, 72 h, BT20 cell line (breast)",340 nM
same,IC50,"Homo sapiens, BXPC-3, 72 h, BXPC3 cell line (pancreas)",2530 nM
same,IC50,"Homo sapiens, C-33-A, C33A cell line (cervical)",630 nM
same,IC50,"Homo sapiens, CAKI-1, 72 h, CAKI1 cell line (kidney)",20 nM
same,IC50,"Homo sapiens, COLO 205, 72 h, COLO205 cell line (colon)",760 nM
same,IC50,"Homo sapiens, COLO-678, 72 h, COLO678 cell line (colon)",1990 nM
same,IC50,"Homo sapiens, Ca-Ski, CASKI cell line (cervical)",160 nM
same,IC50,"Homo sapiens, Caco-2, 72 h, CACO2 cell line (colon)",610 nM
same,IC50,"Homo sapiens, Calu-6, 72 h, CALU6 cell line (lung)",300 nM
same,IC50,"Homo sapiens, DLD-1, 72 h, DLD1 cell line (colon)",2030 nM
same,IC50,"Homo sapiens, DU-145, 72 h, DU145 cell line (prostate)",120 nM
same,IC50,"Homo sapiens, EFO-21, 72 h, EFO21 cell line (ovary)",330 nM
same,IC50,"Homo sapiens, EJ-28, 72 h, EJ28 cell line (bladder)",220 nM
same,IC50,"Homo sapiens, Granta-519, 72 h, GRANTA-519 cell line (hematological)",2600 nM
same,IC50,"Homo sapiens, HCT-15, 72 h, HCT15 cell line (colon)",1460 nM
same,IC50,"Homo sapiens, HCT-116, 72 h, HCT116 cell line (colon)",480 nM
same,IC50,"Homo sapiens, HEK293, 72 h, HEK293 cell line (kidney)",380 nM
same,IC50,"Homo sapiens, HL-60, 72 h, HL-60 cell line (hematological)",330 nM
same,IC50,"Homo sapiens, HT-29, 72 h, HT29 cell line (colon)",220 nM
same,IC50,"Homo sapiens, HT-1080, 72 h, HT1080 cell line (connective tissue)",3630 nM
same,IC50,"Homo sapiens, HeLa, HELA cell line (cervical)",440 nM
same,IC50,"Homo sapiens, HepG2, 72 h, HEPG2 cell line (liver)",300 nM
same,IC50,"Homo sapiens, Hs-578T, HS578T cell line, breast",550 nM
same,IC50,"Homo sapiens, IGROV-1, 72 h, IGROV1 cell line (ovary)",200 nM
same,IC50,"Homo sapiens, IMR-90, 72 h, IMR90 cell line, lung",410 nM
same,IC50,"Homo sapiens, J82, 72 h, J82 cell line (bladder)",470 nM
same,IC50,"Homo sapiens, JEG-3, 72 h, JEG3 cell line (placenta)",290 nM
same,IC50,"Homo sapiens, JIMT-1, 72 h, JIMT1 cell line (breast)",80 nM
same,IC50,"Homo sapiens, K562, 72 h, K-562 cell line (hematological)",5370 nM
same,IC50,"Homo sapiens, Kasumi 1, 72 h, KASUMI-1 cell line (hematological)",60 nM
same,IC50,"Homo sapiens, L-363, 72 h, L-363 cell line (hematological)",290 nM
same,IC50,"Homo sapiens, LoVo, LOVO cell line (colon)",140 nM
same,IC50,"Homo sapiens, MCF7, 72 h, MCF7 cell line (breast)",9700 nM
same,IC50,"Homo sapiens, MDA-MB-231, 72 h, MDAMB231 cell line (breast)",2850 nM
same,IC50,"Homo sapiens, MDA-MB-435, 72 h, MDAMB435 cell line (skin)",1400 nM
same,IC50,"Homo sapiens, MDA-MB-436, 72 h, MDAMB436 cell line (breast)",190 nM
same,IC50,"Homo sapiens, MDA-MB-468, 72 h, MDAMB468 cell line (breast)",270 nM
same,IC50,"Homo sapiens, MG-63, 72 h, MG63 cell line (bone)",> 50000 nM
same,IC50,"Homo sapiens, MHH-ES-1, 72 h, MHHES1 cell line (bone)",400 nM
same,IC50,"Homo sapiens, MIA PaCa-2, 72 h, MIAPACA2 cell line (pancreas)",> 50000 nM
same,IC50,"Homo sapiens, MINO, MINO cell line (hematological)",150 nM
same,IC50,"Homo sapiens, MV4-11, 72 h, MV4-11 cell line (hematological)",50 nM
same,IC50,"Homo sapiens, NCI-H23, 72 h, NCI-H23 cell line (lung)",410 nM
same,IC50,"Homo sapiens, NCI-H82, 72 h, NCIH82 cell line (lung)",390 nM
same,IC50,"Homo sapiens, NCI-H292, 72 h, NCIH292 cell line (lung)",4170 nM
same,IC50,"Homo sapiens, NCI-H460, 72 h, NCIH460 cell line (lung)",500 nM
same,IC50,"Homo sapiens, OVCAR-3, 72 h, OVCAR3 cell line (ovary)",170 nM
same,IC50,"Homo sapiens, OVCAR-4, 72 h, OVCAR4 cell line (ovary)",560 nM
same,IC50,"Homo sapiens, PANC-1, 72 h, PANC1 cell line (pancreas)",> 50000 nM
same,IC50,"Homo sapiens, PC-3, 72 h, PC3 cell line (prostate)",470 nM
same,IC50,"Homo sapiens, PLC-PRF-5, 72 h, PLCPRF5 cell line (liver)",2020 nM
same,IC50,"Homo sapiens, Panc1005, 72 h, PANC1005 cell line (pancreas)",230 nM
same,IC50,"Homo sapiens, RD, RD cell line (muscle)",640 nM
same,IC50,"Homo sapiens, Ramos, RAMOS cell line (hematological)",520 nM
same,IC50,"Homo sapiens, SAOS-2, 72 h, SAOS2 cell line (bone)",300 nM
same,IC50,"Homo sapiens, SF-268, 72 h, SF268 cell line (brain)",5030 nM
same,IC50,"Homo sapiens, SF-295, 72 h, SF295 cell line (brain)",1650 nM
same,IC50,"Homo sapiens, SK-BR-3, 72 h, SKBR3 cell line (breast)",50 nM
same,IC50,"Homo sapiens, SK-HEP1, 72 h, SKHEP1 cell line (liver)",2410 nM
same,IC50,"Homo sapiens, SK-LMS-1, 72 h, SKLMS1 cell line (uterus)",300 nM
same,IC50,"Homo sapiens, SK-MEL-5, 72 h, SKMEL5 cell line, skin",3170 nM
same,IC50,"Homo sapiens, SK-MEL-28, 72 h, SKMEL28 cell line (skin)",680 nM
same,IC50,"Homo sapiens, SK-N-AS, SKNAS cell line (brain)",370 nM
same,IC50,"Homo sapiens, SK-N-SH, SKNSH cell line (brain)",260 nM
same,IC50,"Homo sapiens, SK-OV-3, 72 h, SKOV3 cell line (ovary)",460 nM
same,IC50,"Homo sapiens, SNB-75, 72 h, SNB75 cell line (brain)",1380 nM
same,IC50,"Homo sapiens, SU-DHL10, 72 h, SU-DHL-10 cell line (hematological)",460 nM
same,IC50,"Homo sapiens, SU-DHL-6, 72 h, SU-DHL-6 cell line (hematological)",240 nM
same,IC50,"Homo sapiens, SW-620, 72 h, SW620 cell line (colon)",360 nM
same,IC50,"Homo sapiens, T-24, 72 h, T24 cell line (bladder)",600 nM
same,IC50,"Homo sapiens, TE-671, 72 h, TE671 cell line (muscle)",2440 nM
same,IC50,"Homo sapiens, THP-1, 72 h, THP-1 cell line (hematological)",2270 nM
same,IC50,"Homo sapiens, U2OS, U2OS cell line (bone)",510 nM
same,IC50,"Homo sapiens, U-87 MG, U87MG cell line (brain)",3130 nM
same,IC50,"Homo sapiens, UMUC3, 72 h, UMUC3 cell line (bladder)",3040 nM
same,IC50,"Homo sapiens, UO-31, 72 h, UO31 cell line (kidney)",240 nM
same,IC50,"Homo sapiens, WSU-NHL, WSU-NHL cell line (hematological)",460 nM
same,IC50,"MT-3, 72 h, MT3 cell line (breast)",280 nM
same,IC50,"NCI-H358M, NCIH358M cell line (lung)",270 nM
same,IC50,"PBMC, PBMC (hematological)",> 50000 nM
same,IC50,"RD-ES, RDES cell line (bone)",250 nM
